From publication PMC8445441, “Elucidating the mechanism by which synthetic helper peptides sensitize Pseudomonas aeruginosa to multiple antibiotics” (PLoS Pathogens, 2021)
Like-named read-outs stand apart in the source and are kept apart here.

How the values were obtained:
[1] = test system: clinical P. aeruginosa isolates; test: microbe, parasite or virus in culture; conditions: Pseudomonas aeruginosa, 18 h, antibiotic alone
Summary of the method: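 Broth microdilution per CLSI in MHB, two-fold drug dilutions mixed with an equal volume of bacteria at about 1 × 10^6 CFU/mL. After 18 h at 37 °C, MIC taken as the lowest concentration with no visible growth; run in triplicate.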

[2] = test system: P. aeruginosa AUMC-Pa-3; test: microbe, parasite or virus in culture; conditions: strain AUMC-Pa-3
Summary of the method: (§1)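 MICs were determined by CLSI broth microdilution in MHB, in triplicate: two-fold drug dilutions were mixed 1:1 with bacterial suspension of ~1 × 10^6 CFU/mL and incubated 18 h at 37 °C. The MIC was the lowest concentration with no visible growth.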

[3] = test system: P. aeruginosa AUMC-Pa-4; test: microbe, parasite or virus in culture; conditions: strain AUMC-Pa-4
Summary of the method: as §1

[4] = test system: P. aeruginosa AUMC-Pa-6; test: microbe, parasite or virus in culture; conditions: strain AUMC-Pa-6
Summary of the method: as §1

[5] = test system: P. aeruginosa PAO1; test: microbe, parasite or virus in culture; conditions: Pseudomonas aeruginosa, PAO1, 18 h, read-out: MICa: the MIC of antibiotics, S1 Table; macrolide alone; PAO1
Summary of the method: as §1

[6] = test system: P. aeruginosa AUMC-Pa-5; test: microbe, parasite or virus in culture; conditions: strain AUMC-Pa-5
Summary of the method: as §1

[7] = test system: P. aeruginosa HM-214; conditions: strain HM-214; antibiotic + D-11 (MICb/MICbc 128/4)
Summary of the method: as §1

[8] = test system: P. aeruginosa NR-31041; test: microbe, parasite or virus in culture; set-up: MICa: MIC of the antibiotic / MICac: MIC of the antibiotic in the combination: unit not given beside the values; conditions: strain NR-31041
Summary of the method: as §1

[9] = test system: P. aeruginosa PAK; test: microbe, parasite or virus in culture; set-up: MICa: MIC of the antibiotic / MICac: MIC of the antibiotic in the combination: unit not given beside the values; conditions: strain PAK
Summary of the method: as §1

[10] = test system: P. aeruginosa ATCC27853; test: microbe, parasite or virus in culture; set-up: MICa: MIC of the antibiotic / MICac: MIC of the antibiotic in the combination: unit not given beside the values; conditions: strain ATCC27853
Summary of the method: as §1

[11] = test system: P. aeruginosa PA14; test: microbe, parasite or virus in culture; set-up: MICa: MIC of the antibiotic / MICac: MIC of the antibiotic in the combination: unit not given beside the values; conditions: strain PA14
Summary of the method: as §1

[12] = test system: P. aeruginosa NR-31040; test: microbe, parasite or virus in culture; set-up: MICa: MIC of the antibiotic / MICac: MIC of the antibiotic in the combination: unit not given beside the values; conditions: strain NR-31040
Summary of the method: as §1

[13] = test system: P. aeruginosa AUMC-Pa-1; conditions: strain AUMC-Pa-1; antibiotic + D-11 (MICb/MICbc 128/4)
Summary of the method: as §1

[14] = test system: P. aeruginosa AUMC-Pa-2; conditions: strain AUMC-Pa-2; antibiotic + D-11 (MICb/MICbc 64/4)
Summary of the method: as §1

[15] = antibiotic + D-11 (MICb/MICbc 128/4)
[16] = antibiotic alone, unit not given
[17] = with D-11 at MICbc 4, unit not given
[18] = antibiotic + D-11 (MICb/MICbc 64/4)

- MIC ([1]; read-out: Antibiotic sensibility (MIC) of clinical P. aeruginosa isolate AUMC-Pa-1, strain AUMC-Pa-1): 128 µM
- MIC ([1]; read-out: Antibiotic sensibility (MIC) of clinical P. aeruginosa isolate AUMC-Pa-2, strain AUMC-Pa-2): 64 µM
- MIC ([1]; read-out: Antibiotic sensibility (MIC) of clinical P. aeruginosa isolate AUMC-Pa-3, strain AUMC-Pa-3): 64 µM
- MIC ([1]; read-out: Antibiotic sensibility (MIC) of clinical P. aeruginosa isolate AUMC-Pa-4, strain AUMC-Pa-4): 64 µM
- MIC ([1]; read-out: Antibiotic sensibility (MIC) of clinical P. aeruginosa isolate AUMC-Pa-5, strain AUMC-Pa-5): 64 µM
- MIC ([1]; read-out: Antibiotic sensibility (MIC) of clinical P. aeruginosa isolate AUMC-Pa-6, strain AUMC-Pa-6): 64 µM
- MIC ([1]; read-out: Antibiotic sensibility (MIC) of clinical P. aeruginosa isolate HM-214, strain HM-214): 128 µM
- MIC ([1]; read-out: Antibiotic sensibility (MIC) of clinical P. aeruginosa isolate NR-31040, strain NR-31040): 128 µM
- MIC ([1]; read-out: Antibiotic sensibility (MIC) of clinical P. aeruginosa isolate NR-31041, strain NR-31041): 128 µM
- MICa: MIC of the antibiotic [2, 16]: 64
- MICac: MIC of the antibiotic in the combination [2, 17]: 2
- MICa: MIC of the antibiotic [3, 16]: 64
- MICac: MIC of the antibiotic in the combination [3, 17]: 32
- MICa: MIC of the antibiotic [4, 16]: 64
- MICac: MIC of the antibiotic in the combination [4, 17]: 32
- MIC [5]: 64 µM
- MICa: MIC of the antibiotic [6, 16]: 64
- MICac: MIC of the antibiotic in the combination [6, 17]: 32
- MICa: MIC of the antibiotic [8, 16]: 128
- MICac: MIC of the antibiotic in the combination [8, 17]: 16
- MICa: MIC of the antibiotic [9, 16]: 64
- MICac: MIC of the antibiotic in the combination [9, 17]: 16
- MICa: MIC of the antibiotic [10, 16]: 64
- MICac: MIC of the antibiotic in the combination [10, 17]: 8
- MICa: MIC of the antibiotic [11, 16]: 64
- MICac: MIC of the antibiotic in the combination [11, 17]: 16
- MICa: MIC of the antibiotic [12, 16]: 128
- MICac: MIC of the antibiotic in the combination [12, 17]: 64
SMILES: CC[C@H]1OC(=O)[C@H](C)C(=O)[C@H](C)[C@@H](O[C@@H]2O[C@H](C)C[C@H](N(C)C)[C@H]2O)[C@](C)(OC)C[C@@H](C)C(=O)[C@H](C)[C@H]2N(CCCCn3cnc(-c4cccnc4)c3)C(=O)O[C@]12C [Telithromycin]
- FICI [2, 15]: 0.063
- FICI [3, 15]: 0.531
- FICI [4, 18]: 0.563
- FICI [6, 18]: 0.563
- FICI [7]: 0.156
- FICI [8, 18]: 0.188
- FICI [9, 18]: 0.313
- FICI ([10]; antibiotic + D-11 (MICb/MICbc 32/4)): 0.250
- FICI [11, 15]: 0.281
- FICI [12, 15]: 0.531
- FICI [13]: 0.156
- FICI [14]: 0.313
